Like-named read-outs stand apart in the source and are kept apart here.
Tests used:
[1] = test system: HeLa cells; assay: Transfection efficiency with Luciferase (SecNLuc) mRNA, Nano-Glo assay (Method A); format: cell-based; settings: Luc mRNA, 24 h, luminescence; for Transfection 10 ng mRNA: 10 ng mRNA/well; for Transfection 50 ng mRNA: 50 ng mRNA/well; for Transfection 100 ng mRNA: 100 ng mRNA/well
Summary of the method: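 Luminescence from secreted NanoLuc, read with Nano-Glo reagent, gave transfection efficiency 24 h after HeLa cells were dosed. Method A lipid nanoparticles delivered SecNLuc mRNA at 10, 50 or 100 ng per well in triplicate.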

[2] = test system: HepG2 cell line; assay: In vitro toxicity study on HepG2 cell line (resazurin, viability and IC50); format: cell-based, human; settings: for Viability (%) at different lipid concentrations, mean: HepG2 cells, 48 h post-treatment, relative to ethanol vehicle controls; for IC50: Homo sapiens, read-out: IC50 value, μM (on HepG2 cell)
Summary of the method: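 Resazurin read-out (ex 530/em 580 nm, 5 h at 37 °C) measured lipid toxicity 48 h after dosing HepG2 cells (1000/well) at 6.25–800 μM. Viability was normalised to ethanol vehicle, and IC50 was derived from concentration-response curves.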

[3] = lipid toxicity, HepG2, 48 h post-treatment, resazurin, 6.25-800 μM

| Compound | Transfection 10 ng mRNA [1] | Transfection 50 ng mRNA [1] | Transfection 100 ng mRNA [1] | Viability (%) at different lipid concentrations, mean ([2]; 6.25 μM lipid, resazurin) [%] | Viability (%) at different lipid concentrations, mean ([2]; 12.5 μM lipid, resazurin) [%] | Viability (%) at different lipid concentrations, mean ([2]; 25 μM lipid, resazurin) [%] | Viability (%) at different lipid concentrations, mean ([2]; 50 μM lipid, resazurin) [%] | Viability (%) at different lipid concentrations, mean ([2]; 100 μM lipid, resazurin) [%] | Viability (%) at different lipid concentrations, mean ([2]; 200 μM lipid, resazurin) [%] | Viability (%) at different lipid concentrations, mean ([2]; 400 μM lipid, resazurin) [%] | Viability (%) at different lipid concentrations, mean ([2]; 800 μM lipid, resazurin) [%] | IC50 [2, 3] [µM] | IC50 ([2]; HepG2, 48 h) [µM] |
| --- | --- | --- | --- | --- | --- | --- | --- | --- | --- | --- | --- | --- | --- |
| CCCCC/C=C\C/C=C\CCCCCCCCOC(CCCCCCC/C=C\C/C=C\CCCCC)O[Si](C)(C)OCCCCCCN(C)[C@H](CO)Cc1ccccc1 (stereo partly drawn) [Example 77, (2S,23Z,26Z)-2-benzyl-13-((8Z,11Z)-heptadeca-8,11-dien-1-yl)-3,11,11-trimethyl-10,12,14-trioxa-3-aza-11-siladotriaconta-23,26-dien-1-ol] | 3.44E+02 | 2.55E+03 | 6.09E+03 | 96.2 | 99.9 | 101.0 | 103.7 | 100.6 | 100.5 | 101.1 | 73.8 | > 800 | – |
| CCCCCCCC/C=C\CCCCCCCCOC(CCCCCCC/C=C\CCCCCCCC)O[Si](C)(C)OCCCCCCN(C)[C@H](CO)Cc1ccccc1 (stereo partly drawn) [Example 78, (2S,Z)-2-benzyl-13-((Z)-heptadec-8-en-1-yl)-3,11,11-trimethyl-10,12,14-trioxa-3-aza-11-siladotriacont-23-en-1-ol] | 2.45E+03 | 1.55E+04 | 3.54E+04 | 92.0 | 101.6 | 101.5 | 102.9 | 101.9 | 100.8 | 56.4 | 1.6 | 414 | – |
| CCCCC/C=C\C/C=C\CCCCCCCCOC(CCCCCCC/C=C\C/C=C\CCCCC)O[Si](C)(C)OCCCCCCN(C)C (stereo not drawn) [Example 79, (20Z,23Z)-10-((8Z,11Z)-heptadeca-8,11-dien-1-yl)-N,N,8,8-tetramethyl-7,9,11-trioxa-8-silanonacosa-20,23-dien-1-amine] | 2.45E+03 | 8.30E+04 | 2.01E+05 | 100.82 | 98.88 | 99.57 | 101.89 | 99.49 | 76.57 | 52.32 | 34.54 | – | 473 |
| CCCCC/C=C\C/C=C\CCCCCCCCO[Si](C)(C)OC(CCCCCCC/C=C\C/C=C\CCCCC)OCCCN(C)C (stereo not drawn) [Example 80, (17Z,20Z)-5-((8Z,11Z)-heptadeca-8,11-dien-1-yl)-N,N,7,7-tetramethyl-4,6,8-trioxa-7-silahexacosa-17,20-dien-1-amine] | 1.90E+01 | 1.25E+02 | 5.41E+02 | 98.8 | 98.68 | 98.64 | 99.05 | 96.68 | 69.13 | 0.79 | 0.71 | – | 223 |
| CCCCCCCC/C=C\CCCCCCCCOC(=O)C(C)(C)CC(OCCCCCCCC/C=C\CCCCCCCC)O[Si](C)(C)OCCCCCCN(CCO)CCO (stereo not drawn) [Example 84, (Z)-octadec-9-en-1-yl 1-hydroxy-3-(2-hydroxyethyl)-11,11,15,15-tetramethyl-13-(((Z)-octadec-9-en-1-yl)oxy)-10,12-dioxa-3-aza-11-silahexadecan-16-oate] | 3.08E+03 | 5.69E+04 | 2.00E+05 | 87.8 | 99.3 | 101.8 | 104.5 | 103.5 | 90.4 | 82.2 | 88.5 | > 800 | – |
| CCCCCCCC/C=C\CCCCCCCCOC(=O)C(C)(C)CC(OCCCCCCCC/C=C\CCCCCCCC)O[Si](C)(C)OCCCCCCN1CCOCC1 (stereo not drawn) [Example 85, (Z)-octadec-9-en-1-yl 4-((dimethyl((6-morpholinohexyl)oxy)silyl)oxy)-2,2-dimethyl-4-(((Z)-octadec-9-en-1-yl)oxy)butanoate] | 4.67E+00 | 3.23E+01 | 8.37E+01 | 97.0 | 101.0 | 101.4 | 102.1 | 101.5 | 101.9 | 103.2 | 80.1 | > 800 | – |
| CCCCCCCC/C=C\CCCCCCCCOC(=O)C(C)(C)CC(OCCCCCCCC/C=C\CCCCCCCC)O[Si](C)(C)OCCCCCCN(CCCCO)CCCCO (stereo not drawn) [Example 86, (Z)-octadec-9-en-1-yl 18-hydroxy-14-(4-hydroxybutyl)-2,2,6,6-tetramethyl-4-(((Z)-octadec-9-en-1-yl)oxy)-5,7-dioxa-14-aza-6-silaoctadecanoate] | 3.47E+04 | 4.82E+05 | 1.37E+06 | 95.4 | 107.0 | 108.7 | 105.4 | 95.4 | 77.2 | 57.1 | 42.8 | 564 | – |
| CCCCCCCC/C=C\CCCCCCCCOC(=O)C(C)(C)CC(OCCCCCCCC/C=C\CCCCCCCC)O[Si](C)(C)OCCCCCCN1CCCCC1 (stereo not drawn) [Example 87, (Z)-octadec-9-en-1-yl 4-((dimethyl((6-(piperidin-1-yl)hexyl)oxy)silyl)oxy)-2,2-dimethyl-4-(((Z)-octadec-9-en-1-yl)oxy)butanoate] | 5.68E+03 | 5.01E+04 | 9.96E+04 | 101.2 | 97.0 | 97.0 | 97.8 | 97.6 | 102.1 | 73.7 | 35.2 | – | 625 |
